Test results as given in PMC10704959 (Biochemistry, 2023).

Molecular target: MoLOX (Pyricularia oryzae, UniProt G4NAP4)
Conditions: read-out: KMμM

MoLOX, sequence (G4NAP4 17-619 limits assumed): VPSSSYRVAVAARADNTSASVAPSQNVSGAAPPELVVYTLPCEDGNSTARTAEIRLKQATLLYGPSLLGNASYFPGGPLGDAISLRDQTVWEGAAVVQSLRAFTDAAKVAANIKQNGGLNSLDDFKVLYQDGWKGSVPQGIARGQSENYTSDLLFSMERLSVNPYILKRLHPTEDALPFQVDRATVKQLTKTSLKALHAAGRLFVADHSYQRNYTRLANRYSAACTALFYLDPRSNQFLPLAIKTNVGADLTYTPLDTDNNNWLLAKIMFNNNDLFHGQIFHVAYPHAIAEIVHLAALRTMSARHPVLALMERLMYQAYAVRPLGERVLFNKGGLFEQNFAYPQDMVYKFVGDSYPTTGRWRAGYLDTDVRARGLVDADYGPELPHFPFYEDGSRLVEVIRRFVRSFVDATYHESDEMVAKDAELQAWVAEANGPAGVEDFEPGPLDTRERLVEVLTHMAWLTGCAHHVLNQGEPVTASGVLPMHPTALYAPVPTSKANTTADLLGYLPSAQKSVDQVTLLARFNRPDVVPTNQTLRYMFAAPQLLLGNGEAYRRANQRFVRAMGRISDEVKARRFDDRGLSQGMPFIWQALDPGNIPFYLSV

CCCCC/C=C\C/C=C\CCCCCCCC(=O)O [LA, linoleic acid]
Km: 14 ± 2 µM
